# Experimental data reported in patent US6680332B1, “Substituted 5-oxo-5,6,7,8-tetrahydro-4H-1-benzopyrans and benzothiopyrans and the use thereof as potentiators of AMPA” (Euro-Celtique S.A., priority 1999, dated 2004).
# Where “and” joins values, the source holds several entries; their conditions need not be identical. Equal entries are not always repeated.
# Assays:
# AMPA receptors = assay: Electrophysiology: potentiation of AMPA-evoked membrane currents in Xenopus oocytes injected with rat cortical poly(A)+ RNA (two-electrode voltage clamp); type: cell-based; conditions: 10 μM AMPA; for AMPA positive potentiation 2-fold @ μM (concentration required for 2-fold potentiation of the AMPA response): rat cortical poly(A)+ RNA, holding potential -70 mV
# Procedure: FIG. 1 depicts a graph showing the concentration-effect relationship for the potentiation of AMPA-evoked currents in Xenopus oocytes by the compound of Example 4. Xenopus oocytes were injected with rat cortical poly (A+) RNA and membrane currents were measured by a standard, two-microelectrode voltage clamp method. A solution of AMPA (10 μM) was superfused through the recording chamber in the absence (control) or presence of increasing concentrations of the compound of Example 4. “I” is membrane current.
# The novel compounds of the invention were assessed by electrophysiological assays in Xenopus oocytes expressing rat […] poly(A)^+ RNA (see Keana et al, J. Med. Chem. 38:4367-4379 (1995)) or in cultured rat cortical neurons (see Woodward et al., Mol. Pharmacol. 47:568-581 (1995)) for AMPA receptor activity. The compounds that potentiate currents across the oocyte membrane are expected to be useful as cognitive enhancers or for the treatment of schizophrenia, myoclonus or neurodegenerative diseases such as Parkinson's disease and Alzheimer's disease. Thus, the present invention is directed to compounds that are positive modulators of AMPA receptors.
# Total RNA was prepared from rat cerebral cortex by homogenization in urea/LiCl followed by phenol/chloroform extraction. Polyadenylated (poly A^+) mRNA was isolated from total cellular RNA by oligo-dT cellulose chromatography. Xenopus oocytes were prepared by the method of Woodward et al. (Mol. Pharmacol. 41, 89-103 (1992)). Oocytes were microinjected with approximately 50 ng of cortical poly(A)^+ RNA and stored in Barth's medium (containing in mM: NaCl, 88; KCl, 1; CaCl2, 0.41; Ca(NO3)2, 0.33; MgSO4, 0.82; NaHCO3, 2.4; HEPES 5; pH 7.4, with 0.1 mg/ml gentamycin sulphate) for 6 days prior to recording. Membrane current responses were recorded in frog Ringer solution containing (in mM): NaCl, 115; KCl, 2; CaCl2, 1.8; HEPES, 5; pH 7.4, or in a nominally Ca^2+-free Ringer solution containing (in mM): NaCl, 115; KCl, 2; BaCl2, 1.8; HEPES, 5; pH 7.4. Electrical recordings were made using a conventional two-electrode voltage clamp (Dagan TEV-200). The oocyte was placed in a 5 ml chamber lined with nylon mesh, impaled with two micro-electrodes and voltage-clamped at a holding potential of −70 mV. A scaled up linear array system (Benveniste and Mayer, J. Physiol. 464, 131-163 (1993)) was used to superfuse the oocyte in Ringer solution and to apply drugs and wash solutions. A control concentration (10 μM) of AMPA was applied to the oocyte to determine a baseline membrane current response. The modulation of this response by AMPA potentiators was measured by applying increasing concentrations of the potentiator in Ringer solution for ˜30 s followed by coapplication of the potentiator with 10 μM AMPA. The resulting membrane current responses were analyzed by sigmoidal curve fitting (Origin, Microcal Software, Inc.).
Molecule,melting point [°C],"EC50 (AMPA receptors; sigmoidal curve fitting, read-out: half-maximally effective concentration for potentiation of the AMPA response) [µM]",AMPA positive potentiation 2-fold @ μM (concentration required for 2-fold potentiation of the AMPA response) (AMPA receptors),maximal potentiation of the AMPA response (AMPA receptors; at 100 μM compound) [fold]
"CC1(C)CC(=O)C2=C(C1)OC(N)=C(C#N)C2c1ccc([N+](=O)[O-])cc1 (stereo not drawn) [Example 12, 2-Amino-3-cyano-7,7-dimethyl-4-(4-nitrophenyl)-5-oxo-5,6,7,8-tetrakydro-4H-1-benzopyran]",,,60.0 µM,
"CC1(C)CC(=O)C2=C(C1)OC(N)=C(C#N)C2c1ccc(Cl)cc1 (stereo not drawn) [Example 6, 2-Amino-3-cyano-4-(4chlorophenyl)-7,7-dimethyl-5-oxo-5,6,7,8-tetrahydro-4N-1-benzopyran]",,,18.0 µM,
"COc1ccc(C2C(C#N)=C(N)OC3=C2C(=O)CCC3)cc1 (stereo not drawn) [Example 5, 2-Amino-3-cyano-4-(4-methoxyphenyl)-5-oxo-5,6,7,8-tetrahydro-4H-1-benzopyran]",209 to 212,,35.0 µM,
"CC1(C)CC(=O)C2=C(C1)OC(N)=C(C#N)C2c1ccccc1 (stereo not drawn) [Example 3, 2-Amino-3-cyano-7,7-dimethyl-4-phenyl-5-oxo-5,6,7,8-tetrahydro-4H-1-benzopyran]",,,12.0 µM,
"COc1cccc(C2C(C#N)=C(N)OC3=C2C(=O)CC(C)(C)C3)c1 (stereo not drawn) [Example 11, 2-Amino-3-cyano-7,7-dimethyl-4-(3-methzoxyphenyl)-5-oxo-5,6,7,8-tetrahydro-4H-1-benzopyran]",,,6.0 µM,
"Cc1cc(C)c(C2C(C#N)=C(N)OC3=C2C(=O)CC(C)(C)C3)c(C)c1 (stereo not drawn) [Example 2, 2-Amino-3-cyano-7,7-dimethyl-4-(2,4,6-trimethylphenyl)-5-oxo-5,6,7,8-tetrahydro-4H-1-benzopyran]",,,4.0 µM,
"Cc1ccc(C2C(C#N)=C(N)OC3=C2C(=O)CC(C)(C)C3)cc1 (stereo not drawn) [Example 8, 2-Amino-3-cyano-7,7-dimethyl-4-(4-methylphenyl)-5-oxo-5,6,7,8-tetrahydro-4H-1-benzopyran]",,,12.0 µM,
"CC1(C)CC(=O)C2=C(C1)OC(N)=C(C#N)C2c1ccc(O)cc1 (stereo not drawn) [Example 10, 2-Amino-3-cyano-7,7-dimethyl-4-(4-hydroxyphenyl)-5-oxo-5,6,7,8-tetrakydro-4H-1-benzopyran]",,,14.0 µM,
"2-Amino-3-cyano-7,7-dimethyl-4-(3,4-difluoromethylenedioxyphenyl)-5-oxo-5,6,7,8-tetrahydro-4H-1-benzopyran [Example 15]",,,18.0 µM,
"CC1(C)CC(=O)C2=C(C1)OC(N)=C(C#N)C2c1ccc2c(c1)OCO2 (stereo not drawn) [Example 4, 2-Amino-3-cyano7,7-dimethyl-4-(3,4-methylenedioxyphenyl)-5-oxo-5,6,7,8-tetrahydro-4H-1-benzopyran]",,16.6,4 µM and 4.0 µM,11
"COc1cc(C2C(C#N)=C(N)OC3=C2C(=O)CC(C)(C)C3)cc2c1OCO2 (stereo not drawn) [Example 14, 2-Amino-3-cyano-7,7-dimethyl-4-(3-methoxy-4,5-methylenedioxyphenyl)-5-oxo-5,6,7,8-tetrahydro-4H-1-benzopyran]",,,12.0 µM,
"COc1ccc(C2C(C#N)=C(N)OC3=C2C(=O)CC(C)(C)C3)cc1 (stereo not drawn) [Example 1, 2-Amino-3-cyano-7,7-dimethyl-4-(4-methoxyphenyl)-5-oxo-5,6,7,8-tetrahydro-4H-1-benzopyran]",,,7.0 µM,

# Continued, in another order:
melting point [°C],"EC50 (AMPA receptors; sigmoidal curve fitting, read-out: half-maximally effective concentration for potentiation of the AMPA response) [µM]",Molecule,AMPA positive potentiation 2-fold @ μM (concentration required for 2-fold potentiation of the AMPA response) (AMPA receptors),maximal potentiation of the AMPA response (AMPA receptors; at 100 μM compound) [fold]
221 to 224,,"CN(C)c1ccc(C2C(C#N)=C(N)OC3=C2C(=O)CC(C)(C)C3)cc1 (stereo not drawn) [Example 9, 2-Amino-3-cyano-7,7-dimethyl-4-(4-dimethylaminophenyl)-5-oxo-5,6,7,8-tetrahydro-4H-1-benzopyran]",12.0 µM,
222 to 224,,"CC1(C)CC(=O)C2=C(C1)OC(N)=C(C#N)C2c1ccncc1 (stereo not drawn) [Example 13, 2-Amino-3-cyano-7,7-dimethyl-4-(4-pyridyl)-5-oxo-5,6,7,8-tetrahydro-4H-1-benzopyran]",60.0 µM,
214 to 217,,"CC1(C)CC(=O)C2=C(C1)OC(N)=C(C#N)C2c1cccc(O)c1 (stereo not drawn) [Example 7, 2-Amino-3-cyano-7,7-dimethyl-4-(3-hydroxyphenyl)-5-oxo-5,6,7,8-tetrahydro-4H-1-benzopyran]",12.0 µM,
259 to 262,,"CC1(C)CC(=O)C2=C(C1)OC(N)=C(C#N)C2c1ccc2ccccc2c1 (stereo not drawn) [Example 18, 2-Amino-3-cyano-7,7-dimethyl-4-(2-naphthyl)-5-oxo-5,6,7,8-tetrahydro-4H-1-benzopyran]",1.6 µM,
227 to 230,,"CC1(C)CC(=O)C2=C(C1)OC(N)=C(C#N)C2c1ccc(C#N)cc1 (stereo not drawn) [Example 16, 2-Amino-3-cyano-4-(4-cyanophenyl)-7,7-dimethyl-5-oxo-5,6,7,8-tetrahydro-4H-1-benzopyran]",20.0 µM,
189 to 193,,"CC1(C)CC(=O)C2=C(C1)OC(N)=C(C#N)C2c1ccc(F)cc1 (stereo not drawn) [Example 17, 2-Amino-3-cyano-7,7-dimethyl-4-(4-fluorophenyl)-5-oxo-5,6,7,8-tetrahydro-4H-1-benzopyran]",27.0 µM,
